Each structure is given as a SMILES string.

For the experiment, the system named is MV-4-11 cells. In words: Gene expression microarray analysis (Affymetrix PrimeView) and GSEA. Format: cell-based, human. Further details: RFU PODN (11730768_x_at) / Fold change /veh PODN (11730768_x_at) / RFU LINC00158 (11744669_a_at) / Fold change /veh LINC00158 (11744669_a_at) / RFU DUSP10 (11751237_a_at) / Fold change /veh DUSP10 (11751237_a_at) / RFU ID3 (11757404_x_at) / Fold change /veh ID3 (11757404_x_at) / RFU PLEKHG5 (11737974_s_at) / Fold change /veh PLEKHG5 (11737974_s_at) / RFU LRRC4B (11730491_at) / Fold change /veh LRRC4B (11730491_at) / RFU GIMAP4 (11747438_a_at) / Fold change /veh GIMAP4 (11747438_a_at) / RFU KRT8 (11758183_x_at) / Fold change /veh KRT8 (11758183_x_at) / RFU CNN1 (11734310_a_at) / Fold change /veh CNN1 (11734310_a_at) / RFU VPS37D (11726825_at) / Fold change /veh VPS37D (11726825_at) / RFU C10orf10 (11716522_x_at) / Fold change /veh C10orf10 (11716522_x_at) / RFU KIR2DL2 /// KIR2DL4 /// KIR2DL5A /// KIR2DL5B /// KIR2DS1 /// KIR2DS2 /// KIR2DS3 /// KIR2DS4 /// KIR3DL3 /// KIR3DL3 /// KIR3DS1 (11738374_at) / Fold change /veh KIR2DL2 /// KIR2DL4 /// KIR2DL5A /// KIR2DL5B /// KIR2DS1 /// KIR2DS2 /// KIR2DS3 /// KIR2DS4 /// KIR3DL3 /// KIR3DL3 /// KIR3DS1 (11738374_at) / RFU C1QL1 (11718748_at) / Fold change /veh C1QL1 (11718748_at) / RFU TMPRSS4 (11747572_a_at) / Fold change /veh TMPRSS4 (11747572_a_at) / RFU HAMP (11756126_x_at) / Fold change /veh HAMP (11756126_x_at) / RFU RNFT2 (11725882_a_at) / Fold change /veh RNFT2 (11725882_a_at) / RFU NR4A2 (11747474_a_at) / Fold change /veh NR4A2 (11747474_a_at) / RFU ABCC12 (11746883_a_at) / Fold change /veh ABCC12 (11746883_a_at) / RFU TMEM136 (11760407_x_at) / Fold change /veh TMEM136 (11760407_x_at) / RFU CLDN22 /// WWC2 (11732394_at) / Fold change /veh CLDN22 /// WWC2 (11732394_at) / RFU HLA-DPB1 (11760878_x_at) / Fold change /veh HLA-DPB1 (11760878_x_at) / RFU SPINT1 (11716480_a_at) / Fold change /veh SPINT1 (11716480_a_at) / RFU GAP43 (11754022_s_at) / Fold change /veh GAP43 (11754022_s_at) / RFU A4GNT (11735810_at) / Fold change /veh A4GNT (11735810_at) / RFU PRB3 (11715151_x_at) / Fold change /veh PRB3 (11715151_x_at) / RFU TUBB4B (11761932_at) / Fold change /veh TUBB4B (11761932_at) / RFU CAPN14 (11732068_a_at) / Fold change /veh CAPN14 (11732068_a_at) / RFU TMCC2 (11721928_a_at) / Fold change /veh TMCC2 (11721928_a_at) / RFU IRGQ (11745062_a_at) / Fold change /veh IRGQ (11745062_a_at) / RFU FAM174B (11720279_a_at) / Fold change /veh FAM174B (11720279_a_at) / RFU TMPRSS4 (11748680_a_at) / Fold change /veh TMPRSS4 (11748680_a_at) / RFU FAM212B (11763350_a_at) / Fold change /veh FAM212B (11763350_a_at) / RFU PLEKHG5 (11743358_a_at) / Fold change /veh PLEKHG5 (11743358_a_at) / RFU ZSCAN30 (11745921_a_at) / Fold change /veh ZSCAN30 (11745921_a_at) / RFU CMKLR1 (11741424_a_at) / Fold change /veh CMKLR1 (11741424_a_at) / RFU LOC101060620 /// MAPK8IP1 (11723275_at) / Fold change /veh LOC101060620 /// MAPK8IP1 (11723275_at) / RFU SPTSSB (11747773_x_at) / Fold change /veh SPTSSB (11747773_x_at) / RFU PRSS12 (11739890_at) / Fold change /veh PRSS12 (11739890_at) / RFU BIN1 (11741810_x_at) / Fold change /veh BIN1 (11741810_x_at) / RFU WNT11 (11732464_a_at) / Fold change /veh WNT11 (11732464_a_at) / RFU C10orf10 (11716521_a_at) / Fold change /veh C10orf10 (11716521_a_at) / RFU C5orf56 (11738089_at) / Fold change /veh C5orf56 (11738089_at) / RFU CYB561 (11721691_x_at) / Fold change /veh CYB561 (11721691_x_at) / RFU ANKRD19P (11752326_a_at) / Fold change /veh ANKRD19P (11752326_a_at) / RFU OR2T12 /// OR2T33 /// OR2T8 (11738714_s_at) / Fold change /veh OR2T12 /// OR2T33 /// OR2T8 (11738714_s_at) / RFU VCAN (11748164_a_at) / Fold change /veh VCAN (11748164_a_at) / RFU JSRP1 (11732532_at) / Fold change /veh JSRP1 (11732532_at) / RFU KRTAP10-11 (11738290_x_at) / Fold change /veh KRTAP10-11 (11738290_x_at) / RFU MYO3A (11730013_a_at) / Fold change /veh MYO3A (11730013_a_at) / RFU EBF3 (11725865_a_at) / Fold change /veh EBF3 (11725865_a_at) / RFU CAMK2N1 (11719241_x_at) / Fold change /veh CAMK2N1 (11719241_x_at) / RFU C5orf56 (11738088_a_at) / Fold change /veh C5orf56 (11738088_a_at) / RFU OLFML3 (11715873_a_at) / Fold change /veh OLFML3 (11715873_a_at) / RFU LOC100653217 /// NTM (11731650_a_at) / Fold change /veh LOC100653217 /// NTM (11731650_a_at) / RFU MAPK11 (11762145_a_at) / Fold change /veh MAPK11 (11762145_a_at) / RFU FIZ1 (11724087_x_at) / Fold change /veh FIZ1 (11724087_x_at) / RFU OASL (11726364_x_at) / Fold change /veh OASL (11726364_x_at) / RFU SOX15 (11748057_x_at) / Fold change /veh SOX15 (11748057_x_at) / RFU CD79A (11719716_a_at) / Fold change /veh CD79A (11719716_a_at) / RFU HIST1H1D (11736915_at) / Fold change /veh HIST1H1D (11736915_at) / RFU CASKIN2 (11723855_a_at) / Fold change /veh CASKIN2 (11723855_a_at) / RFU LOC730098 (11760151_x_at) / Fold change /veh LOC730098 (11760151_x_at) / RFU OR4N2 (11742367_at) / Fold change /veh OR4N2 (11742367_at) / RFU PRRT2 (11749266_a_at) / Fold change /veh PRRT2 (11749266_a_at) / RFU SNX32 (11753110_a_at) / Fold change /veh SNX32 (11753110_a_at) / RFU CDHR5 (11726645_a_at) / Fold change /veh CDHR5 (11726645_a_at) / RFU RCAN1 (11760418_a_at) / Fold change /veh RCAN1 (11760418_a_at) / RFU FAM167A (11723789_a_at) / Fold change /veh FAM167A (11723789_a_at) / RFU FAM26E (11764081_at) / Fold change /veh FAM26E (11764081_at) / RFU ISYNA1 (11749810_s_at) / Fold change /veh ISYNA1 (11749810_s_at) / RFU ACY1 (11761880_at) / Fold change /veh ACY1 (11761880_at) / RFU 11764098_at / Fold change /veh 11764098_at / RFU SAMD14 (11745864_x_at) / Fold change /veh SAMD14 (11745864_x_at) / RFU NPB (11741838_a_at) / Fold change /veh NPB (11741838_a_at) / RFU TMPRSS6 (11731388_a_at) / Fold change /veh TMPRSS6 (11731388_a_at) / RFU KRTAP10-2 (11738614_at) / Fold change /veh KRTAP10-2 (11738614_at) / RFU ARHGAP8 /// PRR5-ARHGAP8 (11727945_x_at) / Fold change /veh ARHGAP8 /// PRR5-ARHGAP8 (11727945_x_at) / RFU KRTAP5-7 /// NADSYN1 (11734609_at) / Fold change /veh KRTAP5-7 /// NADSYN1 (11734609_at) / RFU RASL12 (11751679_a_at) / Fold change /veh RASL12 (11751679_a_at) / RFU CDKN2B (11736163_a_at) / Fold change /veh CDKN2B (11736163_a_at) / RFU PRF1 (11729649_at) / Fold change /veh PRF1 (11729649_at) / RFU, ZNF638 /// ZNF638-IT1 / Fold change vs veh, ZNF638 /// ZNF638-IT1 / RFU, PANK3 / Fold change vs veh, PANK3 / RFU, SH3YL1 / Fold change vs veh, SH3YL1 / RFU, ZEB2 / Fold change vs veh, ZEB2 / RFU, NRIP1 / Fold change vs veh, NRIP1 / RFU, PTTG1IP / Fold change vs veh, PTTG1IP / RFU, CAPN2 / Fold change vs veh, CAPN2 / RFU, MED14 / Fold change vs veh, MED14 / RFU, SNORA58 / Fold change vs veh, SNORA58 / RFU, C1orf63 / Fold change vs veh, C1orf63 / RFU, LRRFIP1 / Fold change vs veh, LRRFIP1 / RFU, NDUFAF7 / Fold change vs veh, NDUFAF7 / RFU, SLC12A2 / Fold change vs veh, SLC12A2 / RFU, IBTK / Fold change vs veh, IBTK / RFU, ESF1 / Fold change vs veh, ESF1 / Fold change vs veh, TMEM50B / RFU, TAOK1 / Fold change vs veh, TAOK1 / RFU, ACBD3 / Fold change vs veh, ACBD3 / RFU, TMA16 / Fold change vs veh, TMA16 / RFU, RWDD3 / Fold change vs veh, RWDD3 / RFU, BCAT1 / Fold change vs veh, BCAT1 / RFU, EDEM3 / Fold change vs veh, EDEM3 / RFU, TMEM33 / Fold change vs veh, TMEM33 / RFU, WDR75 / Fold change vs veh, WDR75 / RFU, AHCTF1 / Fold change vs veh, AHCTF1 / RFU, TFRC / Fold change vs veh, TFRC / RFU, ZDHHC17 / Fold change vs veh, ZDHHC17 / RFU, NOM1 / Fold change vs veh, NOM1 / RFU, ARL8B / Fold change vs veh, ARL8B / RFU, ZBTB11 / Fold change vs veh, ZBTB11 / RFU, TAMM41 / Fold change vs veh, TAMM41 / RFU, KIAA1704 /// LOC100996395 / Fold change vs veh, KIAA1704 /// LOC100996395 / RFU, ING1 / Fold change vs veh, ING1 / RFU, TRMT61B / Fold change vs veh, TRMT61B / RFU, FUBP3 / Fold change vs veh, FUBP3 / RFU, TP53 / Fold change vs veh, TP53 / RFU, TNKS2 / Fold change vs veh, TNKS2 / RFU, ZFP14 / Fold change vs veh, ZFP14 / RFU, ACTR2 / Fold change vs veh, ACTR2 / RFU, PPP3R1 / Fold change vs veh, PPP3R1 / RFU, PIK3R1 / Fold change vs veh, PIK3R1 / RFU, HNRNPA1 / Fold change vs veh, HNRNPA1 / RFU, RNF170 / Fold change vs veh, RNF170 / RFU, ZNF28 / Fold change vs veh, ZNF28 / RFU, RNGTT / Fold change vs veh, RNGTT / RFU, OGT / Fold change vs veh, OGT / RFU, BRD1 / Fold change vs veh, BRD1 / RFU, MARS / Fold change vs veh, MARS / RFU, ZNF655 / Fold change vs veh, ZNF655 / RFU, FAHD1 / Fold change vs veh, FAHD1 / RFU, BDP1 / Fold change vs veh, BDP1 / RFU, LRRCC1 / Fold change vs veh, LRRCC1 / RFU, ARID1A / Fold change vs veh, ARID1A / RFU, ZNF146 / Fold change vs veh, ZNF146 / RFU, ZNF330 / Fold change vs veh, ZNF330 / RFU, GPN3 / Fold change vs veh, GPN3 / RFU, C9orf123 / Fold change vs veh, C9orf123 / RFU, N4BP2L2 / Fold change vs veh, N4BP2L2 / RFU, ARFIP1 / Fold change vs veh, ARFIP1 / RFU, FAM179B / Fold change vs veh, FAM179B / RFU, BCL10 / Fold change vs veh, BCL10 / RFU, UHRF1BP1L / Fold change vs veh, UHRF1BP1L / RFU, BET1 / Fold change vs veh, BET1 / RFU, CNOT2 / Fold change vs veh, CNOT2 / RFU, ZNF268 / Fold change vs veh, ZNF268 / Fold change vs veh, ZNF507 / RFU, DGCR2 / Fold change vs veh, DGCR2 / RFU, WDSUB1 / Fold change vs veh, WDSUB1 / Fold change vs veh, HSP90B1 /// MIR3652 / RFU, ADSS / Fold change vs veh, ADSS / RFU, GK / Fold change vs veh, GK / RFU, ZNF148 / Fold change vs veh, ZNF148 / RFU, TAF9 / Fold change vs veh, TAF9 / RFU, SLC1A5 / Fold change vs veh, SLC1A5 / RFU, SLMO2 / Fold change vs veh, SLMO2 / RFU, ABCC4 / Fold change vs veh, ABCC4 / RFU, LOC101060439 /// RAP1B / Fold change vs veh, LOC101060439 /// RAP1B / RFU, RFX7 / Fold change vs veh, RFX7 / RFU, GTPBP10 / Fold change vs veh, GTPBP10 / RFU, CNEP1R1 / Fold change vs veh, CNEP1R1 / RFU, BIVM-ERCC5 /// ERCC5 / Fold change vs veh, BIVM-ERCC5 /// ERCC5 / RFU, ILF3 / Fold change vs veh, ILF3 / RFU 11762660_at / Fold change /veh 11762660_at / RFU VCAN (11757783_s_at) / Fold change /veh VCAN (11757783_s_at) / RFU DDX43 (11728927_at) / Fold change /veh DDX43 (11728927_at) / RFU KRT8 (11758188_x_at) / Fold change /veh KRT8 (11758188_x_at) / RFU NKD1 (11759106_at) / Fold change /veh NKD1 (11759106_at) / RFU SRD5A1 (11742802_a_at) / Fold change /veh SRD5A1 (11742802_a_at) / RFU TPSAB1 /// TPSB2 (11721975_s_at) / Fold change /veh TPSAB1 /// TPSB2 (11721975_s_at) / RFU GSTM3 (11746129_a_at) / Fold change /veh GSTM3 (11746129_a_at) / RFU IL23R (11737362_x_at) / Fold change /veh IL23R (11737362_x_at) / RFU TMEM51 (11727254_a_at) / Fold change /veh TMEM51 (11727254_a_at) / RFU PIWIL2 (11732686_x_at) / Fold change /veh PIWIL2 (11732686_x_at) / RFU ORM1 (11744905_x_at) / Fold change /veh ORM1 (11744905_x_at) / RFU CCDC152 (11743942_at) / Fold change /veh CCDC152 (11743942_at) / RFU ECM1 (11717891_a_at) / Fold change /veh ECM1 (11717891_a_at) / RFU IL23R (11748794_a_at) / Fold change /veh IL23R (11748794_a_at) / RFU TNFAIP8L3 (11732012_x_at) / Fold change /veh TNFAIP8L3 (11732012_x_at) / RFU MBOAT4 (11741988_at) / Fold change /veh MBOAT4 (11741988_at) / RFU 11764193_at / Fold change /veh 11764193_at / RFU TMEM53 (11763286_at) / Fold change /veh TMEM53 (11763286_at) / RFU MAGEB2 (11727129_at) / Fold change /veh MAGEB2 (11727129_at) / RFU TMEM200A (11744735_a_at) / Fold change /veh TMEM200A (11744735_a_at) / RFU CCDC152 (11751479_a_at) / Fold change /veh CCDC152 (11751479_a_at) / RFU FAM211A (11726209_a_at) / Fold change /veh FAM211A (11726209_a_at) / RFU RGS16 (11746705_a_at) / Fold change /veh RGS16 (11746705_a_at) / RFU VCAN (11755009_s_at) / Fold change /veh VCAN (11755009_s_at) / RFU RHOB (11743442_s_at) / Fold change /veh RHOB (11743442_s_at) / RFU RGS16 (11720943_a_at) / Fold change /veh RGS16 (11720943_a_at) / RFU RGS16 (11720944_at) / Fold change /veh RGS16 (11720944_at) / RFU, VPS4B / Fold change vs veh, VPS4B / RFU, CREB1 / Fold change vs veh, CREB1 / RFU, DNAJC13 / Fold change vs veh, DNAJC13 / RFU, GNAQ / Fold change vs veh, GNAQ / RFU, CDK5R1 / Fold change vs veh, CDK5R1 / RFU, ZRANB3 / Fold change vs veh, ZRANB3 / RFU, CUL4A / Fold change vs veh, CUL4A / RFU, CCNY / Fold change vs veh, CCNY / RFU, UFL1 / Fold change vs veh, UFL1 / RFU, COG3 / Fold change vs veh, COG3 / RFU, DIAPH2 / Fold change vs veh, DIAPH2 / RFU, SKA2 / Fold change vs veh, SKA2 / RFU, AFF3 / Fold change vs veh, AFF3 / RFU, LMF1 / Fold change vs veh, LMF1 / RFU, IPO11 / Fold change vs veh, IPO11 / RFU, DFFB / Fold change vs veh, DFFB / RFU, FOXP1 / Fold change vs veh, FOXP1 / RFU, CARD8 / Fold change vs veh, CARD8 / RFU, STRN3 / Fold change vs veh, STRN3 / RFU, ADK / Fold change vs veh, ADK / RFU, RASSF2 / Fold change vs veh, RASSF2 / RFU, WIPF1 / Fold change vs veh, WIPF1 / RFU, LARP1B / Fold change vs veh, LARP1B / RFU, RASA1 / Fold change vs veh, RASA1 / RFU, RB1 / Fold change vs veh, RB1 / RFU, PPFIA1 / Fold change vs veh, PPFIA1 / RFU, MAT2A / Fold change vs veh, MAT2A / RFU, CCT5 / Fold change vs veh, CCT5 / RFU, WDR92 / Fold change vs veh, WDR92 / RFU, CUX1 / Fold change vs veh, CUX1 / RFU, TTC7A / Fold change vs veh, TTC7A / RFU, TMEM135 / Fold change vs veh, TMEM135 / RFU, DEPTOR / Fold change vs veh, DEPTOR / RFU, CPM / Fold change vs veh, CPM / RFU, DNAJB6 / Fold change vs veh, DNAJB6 / RFU, CACNA2D3 / Fold change vs veh, CACNA2D3 / RFU, DTX4 / Fold change vs veh, DTX4 / RFU, TFCP2 / Fold change vs veh, TFCP2 / RFU, GMCL1 /// GMCL1P1 / Fold change vs veh, GMCL1 /// GMCL1P1 / RFU, AEBP2 / Fold change vs veh, AEBP2 / RFU, SNHG1 /// SNORD22 /// SNORD25 /// SNORD26 /// SNORD27 /// SNORD28 /// SNORD29 /// SNORD31 / Fold change vs veh, SNHG1 /// SNORD22 /// SNORD25 /// SNORD26 /// SNORD27 /// SNORD28 /// SNORD29 /// SNORD31 / Fold change (Aza/veh), C12orf56 (ProbeSet 11735607_a_at) / Fold change (ACY-1035/veh), C12orf56 (ProbeSet 11735607_a_at) / Fold change (Aza/veh), FGFR1OP (ProbeSet 11751329_s_at) / Fold change (ACY-1035/veh), FGFR1OP (ProbeSet 11751329_s_at) / Fold change (Aza/veh), VPS36 (ProbeSet 11739960_a_at) / Fold change (ACY-1035/veh), VPS36 (ProbeSet 11739960_a_at) / RFU SYPL1 (11715823_x_at) / Fold change /veh SYPL1 (11715823_x_at) / RFU IGFBP7 (11715501_s_at) / Fold change /veh IGFBP7 (11715501_s_at) / RFU REEP3 (11722064_at) / Fold change /veh REEP3 (11722064_at) / RFU IGLL1 (11728026_x_at) / Fold change /veh IGLL1 (11728026_x_at): dose or concentration left out as unconfirmed. Conditions: MV-4-11 cells, 48 hours.

`Nc1ncn([C@@H]2O[C@H](CO)[C@@H](O)[C@H]2O)c(=O)n1` [azacitidine]: the “Fold change /veh VCAN (11757783_s_at)” value turned out to be 1.30.

For the origin of these results see PMC5218480 (PLoS ONE, 2017).
